The term melting point denotes the temperature, or range, at which the solid turns liquid.

Regarding `COc1ccc2ncc(C3=NC(C)(C)C(C)(C)c4c(F)cccc43)cn12` [E 1], the melting point fell in the range of 120 to 122 °C.

`CC1(C)N=C(c2cnc3cccn3c2)c2cccc(F)c2C1(C)C` [E 2, 5-fluoro-3,3,4,4-tetramethyl-1-pyrrolo[1,2-a]pyrimidin-3-yl-isoquinoline] had a melting point of 130 to 134 °C.

`CC1(C)N=C(c2cnc3ccc(Br)n3c2)c2cccc(F)c2C1(C)C` [E 4] displayed a melting point of 166 to 167 °C. `CC1(C)Cc2c(F)cccc2C(c2cnc3ccnn3c2)=N1` [E 9]: the melting point is 159 to 160 °C. `CC1(C)Cc2c(Cl)cccc2C(c2cnc3ccnn3c2)=N1` [E 10] came in with a melting point of 105 °C. As for `Cc1cc2ncc(C3=NC(C)(C)C(C)(C)c4c(F)cccc43)cn2n1` [E 12], the figure is 180 to 190 °C; as for `Cc1nn2cc(C3=NC(C)(C)C(C)(C)c4c(F)cccc43)cnc2c1Br` [E 13], 132 to 134 °C. Regarding `CC1(C)N=C(c2cnc3c(Br)cnn3c2)c2cccc(F)c2C1(C)C` [E 14], the melting point was 58 to 61 °C. Under `Cc1cnn2cc(C3=NC(C)(C)C(C)(C)c4c(F)cccc43)cnc12` [E 15] stands 126 to 128 °C; under `CC1(C)N=C(c2cnc3c(C#N)cnn3c2)c2cccc(F)c2C1(C)C` [E 16], 179 to 182 °C.

Regarding `CC1(C)Cc2c(F)cccc2C(c2cnc3c(Br)cnn3c2)=N1` [E 17, 1-(3-bromopyrazolo[1,5-a]pyrimidin-6-yl)-5-fluoro-3,3-dimethyl-4H-isoquinoline], the melting point lay in the range of 121 to 123 °C. Under `CC1(C)N=C(c2cnc3c(Br)cnn3c2)c2cccc(F)c2C1=O` [E 19, 1-(3-bromopyrazolo[1,5-a]pyrimidin-6-yl)-5-fluoro-3,3-dimethyl-isoquinolin-4-one] stands 201 to 203 °C; under `CSc1nn2cc(C3=NC(C)(C)C(C)(C)c4c(F)cccc43)cnc2c1C#N` [E 20], 112 to 114 °C.

In turn, `CC1(C)N=C(c2cnc3c(Br)cnn3c2)c2cccc(F)c2C1(F)F` [E 21, 1-(3-bromopyrazolo[1,5-a]pyrimidin-6-yl)-4,4,5-trifluoro-3,3-dimethyl-isoquinoline] showed a melting point of 164 to 166 °C. Under `Cc1cnn2cc(C3=NC(C)(C)C(F)(F)c4c(F)cccc43)cnc12` [E 22] stands 135 to 138 °C; under `Cc1nn2cc(C3=NC(C)(C)C(C)(C)c4c(F)cccc43)cnc2c1C#N` [E 23], 176 to 178 °C. As for `CC1(C)N=C(c2cnc3c(C#N)cnn3c2)c2cccc(F)c2C1(F)F` [E 24, 6-(4,4,5-trifluoro-3,3-dimethyl-1-isoquinolyl)pyrazolo[1,5-a]pyrimidine-3-carbonitrile], the figure is 215 to 217 °C; as for `Cc1nn2cc(C3=NC(C)(C)C(C)(C)c4c(F)cccc43)cnc2c1C` [E 25], 136 to 139 °C. As for `CC1(C)N=C(c2cnc3c(F)cnn3c2)c2cccc(F)c2C1(C)C` [E 26], the figure is 198 to 200 °C; as for `CC1(C)N=C(c2cnc3nccn3c2)c2cccc(F)c2C1(C)C` [E 27], 240 to 242 °C. In turn, `CC1(C)Cc2c(F)cccc2C(c2cnc3nccn3c2)=N1` [E 28] showed a melting point of 227 to 229 °C. `Cc1cccc2c1CC(C)(C)N=C2c1cnc2nccn2c1` [E 30] showed a melting point of 157 to 158 °C. As for `CC1(C)N=C(c2cnc3nc(Br)cn3c2)c2cccc(F)c2C1(C)C` [E 31], the figure is 134 to 136 °C; as for `CC1(C)N=C(c2cnc3c(Br)cc(Br)n3c2)c2cccc(F)c2C1(C)C` [E 39], 141 to 143 °C.
